Results: patent US12653896B2, “Targeted dendrimer conjugates” (Starpharma Pty Ltd, priority 2019, dated 2026)

Assays:
MDA-MB-231/HER2 cells = assay: In vitro association study (flow cytometry, Cy5), MDA-MB-231/HER2; format: cell-based, human; details: for cellular association value (DFO/Cy5 BHA dendrimers; quantity not named, table stands under 'Percent of cellular association'): MDA-MB-231/HER2, 0.5 h
Procedure: (§1) MDA-MB-231, MDA-MB-231/HER2 (HER2 knock in) (as described above), or SKOV-3 cells were seeded in a 24-well plate (1×10^5 cells per well) in 500 μL of appropriate growth media with the addition of 10% (v/v) fetal bovine serum (FBS) and incubated with compound 36 or 41 at 3.33 nM, […] atmosphere. After incubation, non-binding/non-associating particles were removed from adherent cells by gently washing with DPBS three times (300 μL/well). Cells were removed from plates by treatment with TrypLE™ Express Enzyme (1×), no phenol red (150 μL/well) for 5-10 min at room temperature. The plates were then placed on ice. Cellular binding and association of sample were then determined through flow cytometry by the acquisition of the signal from Cy5.

MDA-MB-231 cells [1] = assay: In vitro association study (flow cytometry, Cy5), MDA-MB-231; format: cell-based, human; details: for cellular association value (DFO/Cy5 BHA dendrimers; quantity not named, table stands under 'Percent of cellular association'): MDA-MB-231, 0.5 h
Procedure: as §1

MDA-MB-453 cells = assay: Cell association by flow cytometry (Cy5), MDA-MB-453; format: cell-based, human; details: for Mean Fluorescence Intensity (Cy5), MFI: MDA-MB-453, 1 hour on ice, triplicate wells; for binding to HER2-positive MDA-MB-453 cells: result in words
Procedure: The HER2-expressing human metastatic carcinoma cell line MDA-MB-453 (ATCC HTB-131) and the HER2-negative epithelial adenocarcinoma cell line MDA-MB-231 (ATCC HTB-26) were maintained in Dulbecco's Modified Eagle's Medium (DMEM) containing 10% FBS and penicillin-streptomycin (100 U/mL) at 37° C. under a 5% CO2 humidified atmosphere and subcultured prior to confluence using trypsin. Human adenocarcinoma ovary cell line SKOV-3 (ATCC® HTB-77) cells were maintained in RPMI media with the addition of 10% (v/v) FBS and penicillin-streptomycin (100 U/mL) at 37° C. in a 5% CO2 humidified atmosphere and subcultured prior to confluence.
For measurement of cell association by flow cytometry, cells in suspension were added at 1×10^5 cells per well to a 96 well assay plate. Following incubation with nanobody-dendrimer or unconjugated dendrimer for 1 hour on ice, cells were washed three times with 200 ul of DMEM containing 10% FBS to remove unbound dendrimer. Cells were then resuspended in chilled Fluorobrite media supplemented with 10% FBS and Cy5 fluorescence measured using 642 nm excitation and emission collected between 661-691 nm. To measure internalisation kinetics, nanobody-dendrimer was incubated with cells for 24, 4, 1, 0.5 and 0.1 hours at 37° C. before unbound nanobody-dendrimer was removed by washing and analysed by flow cytometry.

ErbB2-ECD = target: T1, ErbB2-ECD (Homo sapiens, UniProt P04626); assay: SPR binding to immobilized ErbB2-ECD; details: result in words
T1 construct: Direct Immobilization of ErbB2-ECD
Procedure: Using a ProteOn XPR36 instrument, ErbB2-ECD was immobilized at 25° C. onto a GLC sensor chip surface (Bio-Rad), with HBS-P+ running buffer (10 mM HEPES, pH 7.4, 150 mM NaCl, 0.05% Tween 20). Standard amine coupling methodology described in Bio-Rad's amine coupling kit was utilized for this immobilization. Lane 1 was activated with a 50:50 mixture of EDC (0.5 mM) and sulfo-NHS (0.125 mM). ErbB2 protein was diluted to […] in 10 mM sodium acetate, pH 5.0 and injected over the activated surface channel. Any remaining activated sites were blocked with 1 M ethanolamine-HCl, pH 8.5.
All SPR binding experiments were performed at 25° C. using HBS-EP+/BSA (10 mM HEPES, pH 7.4, 150 mM NaCl, 3 mM EDTA, 0.05% Tween20, 0.1 mg/ml BSA) as the instrument running buffer (RB). Following immobilization procedures, various concentrations of anti-ErbB2 affibodies and their MMAE-dendrimer conjugates were injected at 60 μl/min over immobilized ErbB2 proteins and their association monitored for 90 sec. Running buffer was subsequently injected over bound Ab-ErbB2 complexes and dissociation monitored for up to 60 min. […] All binding measurements were performed in triplicate.
Collected experimental data were processed using Scrubber-Pro software (www.biologic.com.au). […]

[2] = tested on: MDA-MB-231/HER2 (HER2 knock in) cells; assay: In vitro association study of G5 cabazitaxel dendrimers, MDA-MB-231/HER2; format: cell-based, human; details: MDA-MB-231/HER2, 3.33 nM
Procedure: (§2) MDA-MB-231, MDA-MB-231/HER2 (HER2 knock in), or SKOV-3 cells were seeded in a 24-well plate (1×10^5 cells per well) in 500 μL of appropriate growth media with the addition of 10% (v/v) fetal bovine serum (FBS) and 1% (v/v) penicillin-streptomycin, and incubated with compound 70 (G5, PEG1000, CTX) or 78 (2D3, G5, PEG1000, CTX) at 3.33 nM, with incubation time varied from 1 to 24 h at 37° C. in a 5% CO2 humidified atmosphere. After incubation, non-binding/non-associating particles were removed from adherent cells by gently washing with DPBS three times (300 μL/well). Cells were removed from plates by treatment with TrypLE™ Express Enzyme (1×), no phenol red (150 μL/well) for 5-10 min at room temperature. The plates were then placed on ice. Cellular binding and association of sample were then determined through flow cytometry by the acquisition of the signal from Cy5.

SKOV-3 cells = assay: In vitro association study of G5 cabazitaxel dendrimers, SKOV-3; format: cell-based, human; details: SKOV-3, 3.33 nM
Procedure: as §2

MDA-MB-231 cells [3] = assay: In vitro association study of G5 cabazitaxel dendrimers, MDA-MB-231; format: cell-based, human; details: MDA-MB-231, 3.33 nM
Procedure: as §2

## (MeTzPh)PEG4CO-NHPEG24CO—[N(PN)2][Lys]8[((α-NHCy5)1(α-NHAc)7)(ε-NH-COPEG1100)8] [Compound 37]
MDA-MB-231/HER2 cells; MDA-MB-231/HER2, 1 h
  Mean fluorescence intensity: 293.0 ± 8.5
  Percent of cellular association: 2.47 ± 0.81%
MDA-MB-231/HER2 cells; MDA-MB-231/HER2, 2 h
  Mean fluorescence intensity: 268.0 ± 11.3
MDA-MB-231/HER2 cells; MDA-MB-231/HER2, 4 h
  Mean fluorescence intensity: 241.5 ± 17.7
MDA-MB-231/HER2 cells; MDA-MB-231/HER2, 24 h
  Mean fluorescence intensity: 206.0 ± 2.8
MDA-MB-231 cells [1]; MDA-MB-231, 1 h
  Mean fluorescence intensity: 258.3 ± 19.6
  Percent of cellular association: 1.10 ± 0.35%
MDA-MB-231 cells [1]; MDA-MB-231, 2 h
  Mean fluorescence intensity: 256.7 ± 24.8
  Percent of cellular association: 1.23 ± 0.47%
MDA-MB-231 cells [1]; MDA-MB-231, 4 h
  Mean fluorescence intensity: 221.3 ± 3.5
MDA-MB-231 cells [1]; MDA-MB-231, 24 h
  Mean fluorescence intensity: 215.3 ± 4.9
MDA-MB-453 cells
  Mean Fluorescence Intensity (Cy5), MFI: 3.097 ± 0.01
  binding to HER2-positive MDA-MB-453 cells: did not bind

## (MeTzPh)PEG4CO-NHPEG24CO—[N(PN)2][Lys]16[((α-NHCy5)1(α-NHAc)15)(ε-NH-COPEG1100)16] [Compound 38]
MDA-MB-231/HER2 cells; MDA-MB-231/HER2, 1 h
  Mean fluorescence intensity: 269.0 ± 19.8
  Percent of cellular association: 0.90 ± 0.35%
MDA-MB-231/HER2 cells; MDA-MB-231/HER2, 2 h
  Mean fluorescence intensity: 225.0 ± 5.7
  Percent of cellular association: 0.50 ± 0.10%
MDA-MB-231/HER2 cells; MDA-MB-231/HER2, 4 h
  Mean fluorescence intensity: 198.0 ± 2.8
  Percent of cellular association: 0.50 ± 0.35%
MDA-MB-231/HER2 cells; MDA-MB-231/HER2, 24 h
  Mean fluorescence intensity: 175.5 ± 0.7
  Percent of cellular association: 0.37 ± 0.15%
MDA-MB-231 cells [1]; MDA-MB-231, 1 h
  Mean fluorescence intensity: 239.3 ± 1.2
MDA-MB-231 cells [1]; MDA-MB-231, 2 h
  Mean fluorescence intensity: 230.7 ± 2.3
MDA-MB-231 cells [1]; MDA-MB-231, 4 h
  Mean fluorescence intensity: 217.3 ± 3.2
MDA-MB-231 cells [1]; MDA-MB-231, 24 h
  Mean fluorescence intensity: 195.7 ± 0.6
MDA-MB-453 cells
  Mean Fluorescence Intensity (Cy5), MFI: 6.827 ± 0.07
  binding to HER2-positive MDA-MB-453 cells: did not bind

## (MeTzPh)PEG4CO-NHPEG24CO—[N(PN)2][Lys]32[((α-NHCy5)1(α-NHAc)31)(ε-NH-COPEG1100)32] [Compound 39]
MDA-MB-231/HER2 cells; MDA-MB-231/HER2, 1 h
  Mean fluorescence intensity: 257.5 ± 12.0
MDA-MB-231/HER2 cells; MDA-MB-231/HER2, 2 h
  Mean fluorescence intensity: 249.0 ± 15.6
MDA-MB-231/HER2 cells; MDA-MB-231/HER2, 4 h
  Mean fluorescence intensity: 207.0 ± 2.8
  Percent of cellular association: 0.47 ± 0.21%
MDA-MB-231/HER2 cells; MDA-MB-231/HER2, 24 h
  Mean fluorescence intensity: 207.5 ± 40.3
MDA-MB-231 cells [1]; MDA-MB-231, 1 h
  Mean fluorescence intensity: 252.0 ± 6.0
  Percent of cellular association: 0.97 ± 0.12%
MDA-MB-231 cells [1]; MDA-MB-231, 2 h
  Mean fluorescence intensity: 249.0 ± 8.7
MDA-MB-231 cells [1]; MDA-MB-231, 4 h
  Mean fluorescence intensity: 247.3 ± 7.2
MDA-MB-231 cells [1]; MDA-MB-231, 24 h
  Mean fluorescence intensity: 196.3 ± 3.1
MDA-MB-453 cells
  Mean Fluorescence Intensity (Cy5), MFI: 4.349 ± 0.08
  binding to HER2-positive MDA-MB-453 cells: did not bind

## Azido-PEG24CO—[N(PN)2[Lys]8[(α-NH-Glu-Val-Cit-PAB-MMAE)8(ε-NH-COPEG2000)8] [Compound 21]
ErbB2-ECD
  binding to ErbB2: No binding

## Azido-PEG24CO—[N(PN)2][Lys]8[(α-NH-Glu-Val-Cit-PAB-MMAE)8(ε-NH-COPEG1100)8] [Compound 20]
ErbB2-ECD
  binding to ErbB2: No binding

## BHALys[Lys]2[Lys]4[((α-NH-COPEG24NH-COPEG4(PhTzMe/TCO-PEG3NH-COPEG24NH-Glu-DBCO))1(α-Lys(α-NHCy5)(ε-NHDFO))1(α-NH2)2)(ε-NH-COPEG1000)4] [Compound 82]
MDA-MB-231/HER2 cells
  cellular association value (DFO/Cy5 BHA dendrimers; quantity not named, table stands under 'Percent of cellular association'): 14.83 ± 1.60
MDA-MB-231 cells [1]
  cellular association value (DFO/Cy5 BHA dendrimers; quantity not named, table stands under 'Percent of cellular association'): 23.3 ± 3.98

## BHALys[Lys]2[Lys]4[Lys]8[((α-NH-COPEG24NH-COPEG4(PhTzMe)/TCO-PEG3NH-COPEG24NH-Glu-DBCO)1(α-Lys(α-NHCy5)(ε-NHDFO))1(α-NH2)6)(ε-NH-COPEG1000)8] [Compound 83]
MDA-MB-231/HER2 cells
  cellular association value (DFO/Cy5 BHA dendrimers; quantity not named, table stands under 'Percent of cellular association'): 43.23 ± 3.48
MDA-MB-231 cells [1]
  cellular association value (DFO/Cy5 BHA dendrimers; quantity not named, table stands under 'Percent of cellular association'): 42.8 ± 2.78

## BHALys[Lys]2[Lys]4[Lys]8[Lys]16[((α-NH-COPEG24NH-COPEG4(PhTzMe)/TCO-PEG3NH-COPEG24NH-Glu-DBCO)1(α-Lys(α-NHCy5)(ε-NHDFO))1(α-NH2)14)(ε-NH-COPEG1000)16] [Compound 84]
MDA-MB-231/HER2 cells
  cellular association value (DFO/Cy5 BHA dendrimers; quantity not named, table stands under 'Percent of cellular association'): 16.7 ± 2.48
MDA-MB-231 cells [1]
  cellular association value (DFO/Cy5 BHA dendrimers; quantity not named, table stands under 'Percent of cellular association'): 20.23 ± 0.63

## BHALys[Lys]2[Lys]4[Lys]8[Lys]16[Lys]32[((α-NH-COPEG24NH-COPEG4(PhTzMe)/TCO-PEG3NH-COPEG24NH-Glu-DBCO)1(α-Lys(α-NHCy5)(ε-NHDFO))1(α-NH2)30)(ε-NH-COPEG1000)32] [Compound 85]
MDA-MB-231/HER2 cells
  cellular association value (DFO/Cy5 BHA dendrimers; quantity not named, table stands under 'Percent of cellular association'): 25.6 ± 0.43
MDA-MB-231 cells [1]
  cellular association value (DFO/Cy5 BHA dendrimers; quantity not named, table stands under 'Percent of cellular association'): 33.23 ± 2.2

## BHA[Lys]32[((α-NH-COPEG24NH-COPEG4(PhMeTz))1-4(α-NHCy5)1(α-NH-COPEG9-Val-Ala-PAB-P-Trigger-NMeCO-CTX)22) (α-NH2)5-8(ε-NH-COPEG1100)32] [Compound 70]
[2]; 1 h
  Mean fluorescence intensity (MFI): 0.77 ± 0.06
[2]; 3 h
  Mean fluorescence intensity (MFI): 7.72 ± 4.17
[2]; 6 h
  Mean fluorescence intensity (MFI): 5.82 ± 0.07
[2]; 24 h
  Mean fluorescence intensity (MFI): 12.4±0.64
[2]; in words
  binding over 24 h: minimal binding
SKOV-3 cells; 1 h
  Mean fluorescence intensity (MFI): 1.00 ± 0.29
SKOV-3 cells; 3 h
  Mean fluorescence intensity (MFI): 3.46 ± 0.69
SKOV-3 cells; 6 h
  Mean fluorescence intensity (MFI): 3.90 ± 0.10
SKOV-3 cells; 24 h
  Mean fluorescence intensity (MFI): 11.4±0.42
SKOV-3 cells; in words
  binding over 24 h: minimal binding
MDA-MB-231 cells [3]; 1 h
  Mean fluorescence intensity (MFI): 1.00 ± 0.14
MDA-MB-231 cells [3]; 3 h
  Mean fluorescence intensity (MFI): 4.10 ± 0.71
MDA-MB-231 cells [3]; 6 h
  Mean fluorescence intensity (MFI): 5.65 ± 0.64
MDA-MB-231 cells [3]; 24 h
  Mean fluorescence intensity (MFI): 13.4 ± 0.07
MDA-MB-231 cells [3]; in words
  binding over 24 h: minimal binding
